{
  "source": "patent US20090306093A1",
  "about": "“METHOD FOR TREATING PATIENT HAVING BENIGN PROSTATE HYPERPLASIA” (KAOHSIUNG MEDICAL UNIVERSITY, priority 2008, published 2009)",
  "key": {"[1]": {"test_system": "PZ-HPV-7 human prostatic epithelial cells", "assay": "Cell cycle distribution by flow cytometry", "type": "cell-based", "conditions": "48 hours", "procedure": "PZ-HPV-7 cells were incubated for 2 days with or without KMUP-1 (0.1-10 μM), after trypsinized for 10 minutes with 0.5% trypsin supplemented with 5.3 mM EDTA in HBBS. The cell suspension was then centrifuged at 200 g for 5 minutes at 4° C., resuspended in 1 mL ice-cold HBSS and fixed by the drop-wise addition of 2 mL of ice-cold methanol followed by continuously shaking. The processed cells were kept on ice for 30 minutes and then cells were collected by centrifugation at 90 g for 5 min and stained with propidium iodide (50 μg/mL, Sigma). RNase A (Promega, Madison, Wis.) was then added to a final concentration of 100 U/mL. Samples were stored in the dark for at least 30 minutes before an analysis on a Coulter Epics XL-MCL flow cytometer. […]"}, "a1A-adrenoceptor": {"target": "T1, a1A-adrenoceptor (Rattus norvegicus, UniProt P43140)", "T1 construct": "The submaxillary glands, spleen, and aorta of rats were separately homogenized; from tissue; host or cells: Wistar rat submaxillary gland membranes", "T1 sequence (P43140 1-466)": "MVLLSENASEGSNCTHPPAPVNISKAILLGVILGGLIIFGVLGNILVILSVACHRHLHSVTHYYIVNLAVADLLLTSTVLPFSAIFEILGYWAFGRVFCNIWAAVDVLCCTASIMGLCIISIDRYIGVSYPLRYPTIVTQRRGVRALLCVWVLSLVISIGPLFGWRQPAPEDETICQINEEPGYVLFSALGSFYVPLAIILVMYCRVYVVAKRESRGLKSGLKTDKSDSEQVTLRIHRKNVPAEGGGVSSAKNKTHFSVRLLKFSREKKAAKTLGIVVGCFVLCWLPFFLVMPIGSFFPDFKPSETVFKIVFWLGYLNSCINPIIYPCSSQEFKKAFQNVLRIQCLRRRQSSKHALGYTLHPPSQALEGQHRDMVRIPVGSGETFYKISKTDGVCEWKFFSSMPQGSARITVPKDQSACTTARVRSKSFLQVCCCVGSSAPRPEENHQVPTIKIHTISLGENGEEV", "assay": "[3H]-prazosin competition binding, rat submaxillary gland membranes", "procedure": "Wistar rats were obtained from National Laboratory Animal Breeding and Research Center (Taipei, Taiwan) and housed under a constant temperature and controlled illumination. The submaxillary glands, spleen, and aorta of rats were separately homogenized for 30 seconds with a Kinematica polytron in 20 volumes of ice-cold TE buffer (10 mM Tris HCl, 1 mM EDTA, 0.1 mM ascorbic acid, pH 7.4). The homogenate was filtered under pressure through muslin and the filtrate was centrifuged at 1,000 g for 10 minutes. The supernatant was centrifuged again at 10,000 g for 12 minutes at 4° C. The second supernatant was centrifuged at 30,000 g for 15 minutes at 4° C., and the final pellet was resuspended in the assay buffer (75 mM Tris HCl, 25 mM MgCl2, pH 7.4). Protein content was determined by Bradford's method.\n[^3H]-prazosin, KMUP-1 and membranes (200-300 μg) were incubated for 60 minutes at 25° C. with or without the addition of nonspecific binding agents, in a 75 mM Tris HCl buffer with 25 mM MgCl2, making a final volume of 500 μL. In this experiment, non-specific binding was defined by use of 10 μM phentolamine. In competitive-binding experiments, the competing agent was added directly to the incubation mixture. The incubation was terminated by adding 1 mL of ice cold assay buffer followed by immediate filtration through Whatman GF/C glass fiber filters supported on a 12-port filter manifold (Whatman Int. Ltd, Springfield Mill, Maidstone, UK). The filters were immediately washed 3 times with 5 mL of ice-cold assay buffer and dried in an oven at 60° C. for 2 hours before adding 5 mL of Triton-toluene based scintillation fluid. Membrane-bound radioligand trapped in the filters was counted in a Beckman LS6500 scintillation system (Fullerton, Calif.) with an efficiency of 45%. In each experiment, nonspecifically bound radioligand agents were measured by incubating membrane protein. Specific binding was then obtained by deducting this value from the total binding of radioligand agents for each sample."}, "ROCK2": {"test_system": "ROCK2", "assay": "Quantitative RT-PCR of Rho kinase (ROCK2) mRNA in PZ-HPV-7 cells", "type": "cell-based, human", "procedure": "[…] After the incubation, total RNA is isolated by processing the PZ-HPV-7 cells with TRI REAGEANT (Molecular Research Center, INC., Cincinnati, Ohio, USA) and 1-bromo-3chloropropane (BCP). Isopropanol was used to precipitate the isolated RNA; ethanol (75%) was used to wash the unwanted solution. The samples were then air-dried for 15 minutes at the room temperature. The pellet was re-suspended in 20 μL of DEPC-water (Ambion). After the RNA isolation, total RNA (2 μg) was used for the reverse transcription to cDNA by High-Capacity cDNA Reverse Transcription Kits (Applied Biosystems).\nQuantitation of Rho kinase and an internal reference gene (GAPDH) were done by fluorescence-based real-time detection (ABI PRISM 7900HT Sequence Detection System (Taqman); Applied Biosystems, Foster City, Calif.). The PCR reaction mixture consisted of 1× TaqMan Master Mix, 1× Probe/primers Assay Mix, 100 ng cDNA, and water containing a reference dye, to a final volume of 20 μL (all reagents from Applied Biosystems). Cycling conditions were 50° C. for 2 minutes, 95° C. for 10 minutes, followed by 40 cycles at 95° C. for 15 second and 60° C. for 1 minute. Gene expression values (relative mRNA levels) are expressed as ratios (differences between the Ct values) between the genes of interest and an internal reference gene (GAPDH) providing a normalization factor for the amount of RNA isolated from cells. This analysis was performed by 7900 HT SDS 2.2.1 software."}},
  "data": [
    {"compound": "Cn1c(=O)c2c(ncn2CCN2CCN(c3ccccc3Cl)CC2)n(C)c1=O", "note": "[KMUP-1, 7-[2-[4-(2-Chlorobenzene)piperazinyl]ethyl]-1,3-dimethyl xanthine]", "values": [
      {"measurement": "increase of G0/G1 phase compared with vehicle control", "setting": "[1]; 0.1 μM", "value": "7±1.54", "unit": "%"},
      {"measurement": "increase of G0/G1 phase compared with vehicle control", "setting": "[1]; 1 μM", "value": "10±2.07", "unit": "%"},
      {"measurement": "increase of G0/G1 phase compared with vehicle control", "setting": "[1]; 10 μM", "value": "12.00±0.88", "unit": "%"},
      {"measurement": "Selective Ratio a1A/a1B", "setting": "a1A-adrenoceptor", "value": 5},
      {"measurement": "Selective Ratio a1A/a1D", "setting": "a1A-adrenoceptor", "value": 1},
      {"measurement": "Ki", "setting": "a1A-adrenoceptor; rat submaxillary glands, [3H]-prazosin, read-out: Receptor Affinity (pKi) a1A (converted)", "value": 20.4, "unit": "nM"},
      {"measurement": "Rho kinase gene expression", "setting": "ROCK2; 1 μM, 24 hours", "value": "96.00±10.00 % of control"},
      {"measurement": "Rho kinase gene expression", "setting": "ROCK2; 1 μM, 48 hours", "value": "90.00±10.05 % of control"},
      {"measurement": "Rho kinase gene expression", "setting": "ROCK2; 10 μM, 24 hours", "value": "80.00±8.80 % of control"},
      {"measurement": "Rho kinase gene expression", "setting": "ROCK2; 10 μM, 48 hours", "value": "66.00±5.80 % of control"},
      {"measurement": "Rho kinase gene expression", "setting": "ROCK2; 100 μM, 24 hours", "value": "68.00±5.01 % of control"},
      {"measurement": "Rho kinase gene expression", "setting": "ROCK2; 100 μM, 48 hours", "value": "52.00±7.01 % of control"}
    ]}
  ]
}
